Assay results published in patent US20070158208A1, “Apparatus and methods for treating ballast water by using electrolysis of natural seawater” (Research Institute of Industrial Science & Technology, priority 2003, published 2007).

Legend:
Acartia spp.(Copepoda) = assay: Influence density of NaOCl in electrolyzed water on marine ecosystem; assay type: in vivo
Description: (§1) In the meantime, according to the present invention, marine microorganisms are effectively killed. Influence density for most of organisms in the seawater by electrolyzed water is shown on Table 1 below. As a result of performing the present invention, it has been checked by a natural eye that organisms causing red tide is completely eliminated within 1-2 minutes after spreading of the electrolyzed water. A density of Cochlodinium which has been a population of 7-8 thousand/ml in an actual relevant sea area has approached almost zero after four hours elapse, showing high relief efficiency. If the NaOCl component density required by the electrolyzed water is controlled, complete elimination of marine microorganisms is achieved.

[1] = tested on: Adult benthic fauna: Tapes philippinarum, Giant pacific oyster, Pachygrapsus crassipes; assay: as above; assay type: in vivo
Description: as §1

[2] = tested on: Adult seaweeds: Borphyra seriata, Ulva pertusa; assay: as above; assay type: in vivo
Description: as §1

[3] = tested on: Artemia larva(Kugenumaenis); assay: as above; assay type: in vivo; settings: Benthic fauna larva
Description: as §1

Barnacle larva = assay: as above; assay type: in vivo; settings: Benthic fauna larva
Description: as §1

[4] = tested on: Fish: Bastard halibut fry, sebastes schlegeli fry; assay: as above; assay type: in vivo
Description: as §1

Oxyrrhis marina = assay: as above; assay type: in vivo; settings: Protista
Description: as §1

Polykrikos kofodidii = assay: as above; assay type: in vivo; settings: Protista
Description: as §1

[5] = tested on: Pseudodiaptomus spp.(Copepoda); assay: as above; assay type: in vivo; settings: Zooplankton
Description: as §1

[6] = tested on: Seaweeds spore: Borphyra seriata, Ulva pertusa, Brown seaweed; assay: as above; assay type: in vivo
Description: as §1

Strombidinopsis sp = assay: as above; assay type: in vivo; settings: Protista
Description: as §1

[7] = NaOCl obtained during the electrolysis compared with HCl; cited from earlier work

For [Na+].[O-]Cl [NaOCl], which Influence density (Acartia spp.(Copepoda)) is on record?
The Influence density was 2.0 ppm.

And the Influence density [1]?
Its Influence density is 20 or more ppm.

What about the Influence density [2] of the same compound?
The Influence density was 1.0-1.5 ppm.

And the Influence density [3]?
The Influence density was 30-50 ppm.

And the Influence density (Barnacle larva)?
Its Influence density is 50 ppm.

And the Influence density [4]?
Its Influence density is 2-5 ppm.

And the Influence density (Oxyrrhis marina)?
The Influence density was 0.3 ppm.

And the Influence density (Polykrikos kofodidii)?
The Influence density was 0.75-1.0 ppm.

What about the Influence density [5] of the same compound?
Its Influence density is 10-20 ppm.

And the Influence density [6]?
The Influence density was 0.1-0.3 ppm.

What about the Influence density (Strombidinopsis sp) of the same compound?
Its Influence density is 0.75-1.0 ppm.

What about the “Insecticide and sterilizing effects relative to HCl” value [7] of the same compound?
Its value is “about 1.4 times”.
